Data taken from patent US5502035A, “N-terminus modified analogs of LHRH” (Tap Holdings Inc., priority 1994, dated 1996).
Non-standard residues stand in square brackets, D forms with d. Residues, ends and D or L forms follow the SMILES beside them. *: point of attachment. Shikimoyl = O=C(C1=C[C@@H](O)[C@@H](O)[C@H](O)C1)*; Tetrahydrofuroyl(2R) = O=C([C@H]1CCCO1)*; dPhe(4-Cl) = N[C@H](Cc1ccc(Cl)cc1)C(=O)O; d2Nal = N[C@H](Cc1ccc2ccccc2c1)C(=O)O; Lys(iPr) = CC(C)NCCCC[C@H](N)C(=O)O; NMeY = CN[C@@H](Cc1ccc(O)cc1)C(=O)O; Thiophene2carbonyl = O=C(c1cccs1)*; d3Pal = N[C@H](Cc1cccnc1)C(=O)O; Nicotinoyl = O=C(c1cccnc1)*; Picolinoyl = O=C(c1ccccn1)*; 2Furoyl = O=C(c1ccco1)*; X1 = O=C([C@@H]1CCCO1)*; X3 = O=C([C@@H]1CCOC1)*; X7 = O=C([C@H]1CCOC1)*; X9 = O=C(c1ccc(O)nc1)*; X6 = O=C(c1ccoc1)*

Target: T1, LHRH (Rattus norvegicus, UniProt P30969)
T1 construct: endogenous in cells; host or cells: rat pituitary cells (own knowledge of the cited Haviv 1989 method)
T1 sequence (P30969 1-327): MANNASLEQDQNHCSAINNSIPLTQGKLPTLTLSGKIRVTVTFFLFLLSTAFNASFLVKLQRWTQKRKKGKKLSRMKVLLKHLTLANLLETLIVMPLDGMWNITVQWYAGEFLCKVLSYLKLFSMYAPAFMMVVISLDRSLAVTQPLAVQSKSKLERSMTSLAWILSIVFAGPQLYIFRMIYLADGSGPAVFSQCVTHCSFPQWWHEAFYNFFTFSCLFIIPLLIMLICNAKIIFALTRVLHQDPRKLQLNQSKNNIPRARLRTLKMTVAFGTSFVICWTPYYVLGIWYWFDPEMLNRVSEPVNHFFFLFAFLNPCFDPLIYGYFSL
Assay: in vitro test for LHRH antagonist potency (pA2)
Type: cell-based
Conditions: negative logarithm of the antagonist concentration required to shift the response curve produced by the agonist leuprolide to two-fold higher concentration
Summary of the method: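 Antagonism read against the agonist leuprolide on rat LHRH receptor; value is pA2, the −log of antagonist concentration that doubles the agonist concentration needed for the same response.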

SMILES | Kb
CC(C)C[C@H](NC(=O)[C@@H](CCCCNC(=O)c1cccnc1)NC(=O)[C@H](Cc1ccc(O)cc1)N(C)C(=O)[C@H](CO)NC(=O)[C@@H](Cc1cccnc1)NC(=O)[C@@H](Cc1ccc(Cl)cc1)NC(=O)[C@@H](Cc1ccc2ccccc2c1)NC(=O)[C@@H]1CCCO1)C(=O)N[C@@H](CCCCNC(C)C)C(=O)N1CCC[C@H]1C(=O)N[C@H](C)C(N)=O [Example 67, N-(S)-Tetrahydrofur-2-oyl-D2Nal-D4ClPhe-D3Pal-Ser-NMeTyr-DLys(Nic)-Leu-Lys(Isp)-Pro-DAlaNH2] (X1-[d2Nal][dPhe(4-Cl)][d3Pal]S[NMeY][dK](Nicotinoyl)L[Lys(iPr)]P[dA]-NH2) | 0.0251 nM
CC(C)C[C@H](NC(=O)[C@@H](CCCCNC(=O)c1cccnc1)NC(=O)[C@H](Cc1ccc(O)cc1)N(C)C(=O)[C@H](CO)NC(=O)[C@@H](Cc1cccnc1)NC(=O)[C@@H](Cc1ccc(Cl)cc1)NC(=O)[C@@H](Cc1ccc2ccccc2c1)NC(=O)[C@H]1CCCO1)C(=O)N[C@@H](CCCCNC(C)C)C(=O)N1CCC[C@H]1C(=O)N[C@H](C)C(N)=O [Example 68, N-(R)-Tetrahydrofur-2-oyl-D2Nal-D4ClPhe-D3Pal-Ser-NMeTyr-DLys(Nic)-Leu-Lys(Isp)-Pro-DAlaNH2] ({Tetrahydrofuroyl(2R)}-[d2Nal][dPhe(4-Cl)][d3Pal]S[NMeY][dK](Nicotinoyl)L[Lys(iPr)]P[dA]-NH2) | 0.0141 nM
CC(C)C[C@H](NC(=O)[C@@H](CCCCNC(=O)c1cccnc1)NC(=O)[C@H](Cc1ccc(O)cc1)N(C)C(=O)[C@H](CO)NC(=O)[C@@H](Cc1cccnc1)NC(=O)[C@@H](Cc1ccc(Cl)cc1)NC(=O)[C@@H](Cc1ccc2ccccc2c1)NC(=O)[C@H]1CCOC1)C(=O)N[C@@H](CCCCNC(C)C)C(=O)N1CCC[C@H]1C(=O)N[C@H](C)C(N)=O [Example 69, N-(S)-Tetrahydrofur-3-oyl-D2Nal-D4ClPhe-D3Pal-Ser-NMeTyr-DLys(Nic)t-Leu-Lys(Isp)-Pro-DAlaNH2] (X7-[d2Nal][dPhe(4-Cl)][d3Pal]S[NMeY][dK](Nicotinoyl)L[Lys(iPr)]P[dA]-NH2) | 0.02 nM
CC(C)C[C@H](NC(=O)[C@@H](CCCCNC(=O)c1cccnc1)NC(=O)[C@H](Cc1ccc(O)cc1)N(C)C(=O)[C@H](CO)NC(=O)[C@@H](Cc1cccnc1)NC(=O)[C@@H](Cc1ccc(Cl)cc1)NC(=O)[C@@H](Cc1ccc2ccccc2c1)NC(=O)[C@@H]1CCOC1)C(=O)N[C@@H](CCCCNC(C)C)C(=O)N1CCC[C@H]1C(=O)N[C@H](C)C(N)=O [Example 70, N-(R)-Tetrahydrofur-3-oyl-D2Nal-D4ClPhe-D3Pal-Ser-NMeTyr-DLys(Nic)-Leu-Lys(Isp)-Pro-DAlaNH2] (X3-[d2Nal][dPhe(4-Cl)][d3Pal]S[NMeY][dK](Nicotinoyl)L[Lys(iPr)]P[dA]-NH2) | 0.0126 nM
CC(C)C[C@H](NC(=O)[C@@H](CCCCNC(=O)c1cccnc1)NC(=O)[C@H](Cc1ccc(O)cc1)N(C)C(=O)[C@H](CO)NC(=O)[C@@H](Cc1cccnc1)NC(=O)[C@@H](Cc1ccc(Cl)cc1)NC(=O)[C@@H](Cc1ccc2ccccc2c1)NC(=O)C1=C[C@@H](O)[C@@H](O)[C@H](O)C1)C(=O)N[C@@H](CCCCNC(C)C)C(=O)N1CCC[C@H]1C(=O)N[C@H](C)C(N)=O [Example 71, N-Shikimyl-D2Nal-D4ClPhe-D3Pal-Ser-NMeTyr-DLys(Nic)-Leu-Lys(Isp)-Pro-DAlaNH2] (Shikimoyl-[d2Nal][dPhe(4-Cl)][d3Pal]S[NMeY][dK](Nicotinoyl)L[Lys(iPr)]P[dA]-NH2) | 0.00708 nM
CC(C)C[C@H](NC(=O)[C@@H](CCCCNC(=O)c1cccnc1)NC(=O)[C@H](Cc1ccc(O)cc1)N(C)C(=O)[C@H](CO)NC(=O)[C@@H](Cc1cccnc1)NC(=O)[C@@H](Cc1ccc(Cl)cc1)NC(=O)[C@@H](Cc1ccc2ccccc2c1)NC(=O)c1ccco1)C(=O)N[C@@H](CCCCNC(C)C)C(=O)N1CCC[C@H]1C(=O)N[C@H](C)C(N)=O [Example 72a, N-2-Furoyl-D2Nal-D4ClPhe-D3Pal-Ser-NMeTyr-DLys(Nic)-Leu-Lys(Isp)-Pro-DAlaNH2] (2Furoyl-[d2Nal][dPhe(4-Cl)][d3Pal]S[NMeY][dK](Nicotinoyl)L[Lys(iPr)]P[dA]-NH2) | 0.01 nM
CC(C)C[C@H](NC(=O)[C@@H](CCCCNC(=O)c1cccnc1)NC(=O)[C@H](Cc1ccc(O)cc1)N(C)C(=O)[C@H](CO)NC(=O)[C@@H](Cc1cccnc1)NC(=O)[C@@H](Cc1ccc(Cl)cc1)NC(=O)[C@@H](Cc1ccc2ccccc2c1)NC(=O)c1ccoc1)C(=O)N[C@@H](CCCCNC(C)C)C(=O)N1CCC[C@H]1C(=O)N[C@H](C)C(N)=O [Example 72b, N-3-Furoyl-D2Nal-D4ClPhe-D3Pal-Ser-NMeTyr-DLys(Nic)-Leu-Lys(Isp)-Pro-DAlaNH2] (X6-[d2Nal][dPhe(4-Cl)][d3Pal]S[NMeY][dK](Nicotinoyl)L[Lys(iPr)]P[dA]-NH2) | 0.0851 nM
CC(C)C[C@H](NC(=O)[C@@H](CCCCNC(=O)c1cccnc1)NC(=O)[C@H](Cc1ccc(O)cc1)N(C)C(=O)[C@H](CO)NC(=O)[C@@H](Cc1cccnc1)NC(=O)[C@@H](Cc1ccc(Cl)cc1)NC(=O)[C@@H](Cc1ccc2ccccc2c1)NC(=O)c1cccs1)C(=O)N[C@@H](CCCCNC(C)C)C(=O)N1CCC[C@H]1C(=O)N[C@H](C)C(N)=O [Example 72c, N-Thienyl-2-carbonyl-D2Nal-D4ClPhe-D3Pal-Ser-NMeTyr-DLys(Nic)-Leu-Lys(Isp)-Pro-DAlaNH2] (Thiophene2carbonyl-[d2Nal][dPhe(4-Cl)][d3Pal]S[NMeY][dK](Nicotinoyl)L[Lys(iPr)]P[dA]-NH2) | 0.02 nM
CC(C)C[C@H](NC(=O)[C@@H](CCCCNC(=O)c1cccnc1)NC(=O)[C@H](Cc1ccc(O)cc1)N(C)C(=O)[C@H](CO)NC(=O)[C@@H](Cc1cccnc1)NC(=O)[C@@H](Cc1ccc(Cl)cc1)NC(=O)[C@@H](Cc1ccc2ccccc2c1)NC(=O)c1cccnc1)C(=O)N[C@@H](CCCCNC(C)C)C(=O)N1CCC[C@H]1C(=O)N[C@H](C)C(N)=O [Example 72d, N-Nicotinyl-D2Nal-D4ClPhe-D3Pal-Ser-NMeTyr-DLys(Nic)-Leu-Lys(Isp)-Pro-DAlaNH2] (Nicotinoyl-[d2Nal][dPhe(4-Cl)][d3Pal]S[NMeY][dK](Nicotinoyl)L[Lys(iPr)]P[dA]-NH2) | 0.00871 nM
CC(C)C[C@H](NC(=O)[C@@H](CCCCNC(=O)c1cccnc1)NC(=O)[C@H](Cc1ccc(O)cc1)N(C)C(=O)[C@H](CO)NC(=O)[C@@H](Cc1cccnc1)NC(=O)[C@@H](Cc1ccc(Cl)cc1)NC(=O)[C@@H](Cc1ccc2ccccc2c1)NC(=O)c1ccccn1)C(=O)N[C@@H](CCCCNC(C)C)C(=O)N1CCC[C@H]1C(=O)N[C@H](C)C(N)=O [Example 72e, N-Picolinoyl-D2Nal-D4ClPhe-D3Pal-Ser-NMeTyr-DLys(Nic)-Leu-Lys(Isp)-Pro-DAlaNH2] (Picolinoyl-[d2Nal][dPhe(4-Cl)][d3Pal]S[NMeY][dK](Nicotinoyl)L[Lys(iPr)]P[dA]-NH2) | 0.0141 nM
CC(C)C[C@H](NC(=O)[C@@H](CCCCNC(=O)c1cccnc1)NC(=O)[C@H](Cc1ccc(O)cc1)N(C)C(=O)[C@H](CO)NC(=O)[C@@H](Cc1cccnc1)NC(=O)[C@@H](Cc1ccc(Cl)cc1)NC(=O)[C@@H](Cc1ccc2ccccc2c1)NC(=O)c1ccc(O)nc1)C(=O)N[C@@H](CCCCNC(C)C)C(=O)N1CCC[C@H]1C(=O)N[C@H](C)C(N)=O [Example 72f, N-(6-Hydroxy)nicotinyl-D2Nal-D4ClPhe-D3Pal-Ser-NMeTyr-DLys(Nic)-Leu-Lys(Isp)-Pro-DAlaNH2] (X9-[d2Nal][dPhe(4-Cl)][d3Pal]S[NMeY][dK](Nicotinoyl)L[Lys(iPr)]P[dA]-NH2) | 0.01 nM
